{
  "source": "patent US20160051579A1",
  "about": "“NITRIC OXIDE TREATMENT OF BOVINE RESPIRATORY DISEASE COMPLEX AND OTHER RESPIRATORY CONDITIONS” (Bovicor Pharmatech, Inc., priority 2014, published 2016)",
  "key": {"[1]": {"test_system": "Trichophyton rubrum", "assay": "Antifungal efficacy of NORS, mycelial viability", "type": "cell-based", "conditions": "0.14% sodium nitrite (pH 6) or citric acid at pH 3.7 alone, 30-minute exposure"}, "[2]": {"test_system": "Trichophyton mentagrophytes", "assay": "Antifungal efficacy of NORS, mycelial viability", "type": "cell-based", "conditions": "0.14% sodium nitrite (pH 6) or citric acid at pH 3.7 alone, 30-minute exposure"}, "[3]": {"conditions": "in vivo; cited from earlier work"}, "[4]": {"test_system": "BRDc", "assay": "Commercial feedlot trial NORS vs Micotil: BRDc incidence, relapse, mortality", "type": "in vivo, beef calves", "text": "Commingled, multi-sourced, mixed-breed beef calves were purchased from auction markets for these studies. […] Animals identified for the study were to be approximately 6 months old with an estimated initial mean body weight of between 400-600 lbs. All animals were transported via commercial cattle liners to the feedlot. […] After a 24-hour acclimatization period, the calves were screened, enrolled, randomized, processed, weighed, and temperature measured with blood samples taken by a veterinarian.\n(§1) NORS was delivered with a spray device specifically designed for the study. […] Animals in the control cohort received an injection of Micotil® of 2 mL/100 lb.\nAnimals identified by the pen keepers as appearing to be sick were “pulled” and brought into a barn. The animal was then placed in a catch chute and assessed by a veterinarian, who was blinded to the study, and assigned a clinical score to each animal.\nBRDc was diagnosed as positive based on temperature greater than 103.5° F. and a clinical pulmonary score of 3 or greater.\nAt day 150, all animals were assessed for average daily weight gain and recorded.\nAnimals that died during the first 35 days of the study, for any reason, were sent for pathology testing (done by a board certified, blinded, veterinary pathologist). The following sections were tested: Lungs (left anterior, left middle, left caudal, right anterior, right middle, right caudal), heart, nasal mucosa, pharynx, Retropharyngeal L.N. and trachea. Diagnosis for the cause of death was determined by the pathologist.\nDeaths of animals from day 35 to 150 were recorded and the farm's pathologist identified the cause of death.\nIn order to evaluate the difference in BRDc positive rates between NORS and Micotil® treated animals, a non-inferiority analysis was conducted. Specifically, the null hypothesis that the BRDc positive rate in the Bovinex group (pB) is more than 7.5% higher than the rate in the Micotil® group (pM) was tested using a nonparametric bootstrap: • H0: pB−pM≧7.5% • vs. • H1: pB−pM<7.5%"}, "[5]": {"assay": "Commercial feedlot trial NORS vs Micotil: weight gain", "type": "in vivo, beef calves", "protocol": "as §1\nDuring the follow-up period (day 35 to day 60), relapses requiring antibiotic intervention were recorded as part of the normal feedlot routine. At day 150, all animals were assessed for average daily weight gain and recorded.\nIn order to evaluate the effect of treatment on 35-day weight change, a linear mixed effects model was fit to the data. Specifically, the effect of treatment on weight change was evaluated while controlling for baseline weight (fixed effect) and pen (random effect). Confidence intervals are based on the linear mixed effects model and account for the possibility of correlation of animals grouped together within the same pen."}, "[6]": {"conditions": "cited from earlier work"}},
  "note": "“Also recorded” adds a separate entry of the source.",
  "data": [
    {"smiles": "O=C(O)CC(O)(CC(=O)O)C(=O)O", "note": "[citric acid]", "values": [
      {"measurement": "effect of single component on mycelial growth", "setting": "[1]", "value": "Minimal to no effect; also recorded: no significant effect"},
      {"measurement": "effect of single component on mycelial growth", "setting": "[2]", "value": "Minimal to no effect; also recorded: no significant effect"}
    ]},
    {"smiles": "O=NO", "note": "[sodium nitrite]", "values": [
      {"measurement": "effect of single component on mycelial growth", "setting": "[1]", "value": "Minimal to no effect"},
      {"measurement": "effect of single component on mycelial growth", "setting": "[1]; listed as nitrites", "value": "no significant effect"},
      {"measurement": "effect of single component on mycelial growth", "setting": "[2]", "value": "Minimal to no effect"},
      {"measurement": "effect of single component on mycelial growth", "setting": "[2]; listed as nitrites", "value": "no significant effect"}
    ]},
    {"smiles": "CCCNC[C@]1(O)[C@H](C)O[C@@H](O[C@H]2[C@H](C)[C@@H](O[C@@H]3O[C@H](C)C[C@H](N(C)C)[C@H]3O)[C@](C)(O)C[C@@H](C)CN[C@H](C)[C@@H](O)[C@](C)(O)[C@@H](CC)OC(=O)[C@@H]2C)C[C@@]1(C)OC", "note": "[tulathromycin]", "values": [
      {"measurement": "time remaining in the pulmonary system", "setting": "[3]", "value": "≤ 28", "unit": "days"}
    ]},
    {"smiles": "CC[C@H]1OC(=O)C[C@@H](O)[C@H](C)[C@@H](O[C@@H]2O[C@H](C)[C@@H](O)[C@H](N(C)C)[C@H]2O)[C@@H](CCN2C[C@H](C)C[C@H](C)C2)C[C@@H](C)C(=O)/C=C/C(C)=C/[C@@H]1CO[C@@H]1O[C@H](C)[C@@H](O)[C@@H](OC)[C@H]1OC", "note": "[antibiotic, tilmicosin]", "values": [
      {"measurement": "# of BRDc positive animals", "setting": "[4]; Pen B2", "value": 1},
      {"measurement": "% of BRDc positive animals", "setting": "[4]; Pen B2", "value": 0.7, "unit": "%"},
      {"measurement": "# of BRDc positive animals", "setting": "[4]; Pen B6", "value": 5},
      {"measurement": "% of BRDc positive animals", "setting": "[4]; Pen B6", "value": 3.7, "unit": "%"},
      {"measurement": "# of BRDc positive animals", "setting": "[4]; Pen C3", "value": 3},
      {"measurement": "% of BRDc positive animals", "setting": "[4]; Pen C3", "value": 2.2, "unit": "%"},
      {"measurement": "# of BRDc positive animals", "setting": "[4]; Pen C7", "value": 8},
      {"measurement": "% of BRDc positive animals", "setting": "[4]; Pen C7", "value": 6.2, "unit": "%"},
      {"measurement": "BRDc related deaths as diagnosed by the feedlot", "setting": "[4]; day 35-150", "value": 3},
      {"measurement": "animals that died", "setting": "[4]; day 35-150", "value": 12},
      {"measurement": "animals that died", "setting": "[4]; during the 35 days of the study", "value": 8},
      {"measurement": "animals pulled for suspected illness", "setting": "[4]; first 35 days", "value": "Thirty-three"},
      {"measurement": "number of relapses", "setting": "[4]; followed until day 150", "value": 10},
      {"measurement": "# of BRDc positive animals", "setting": "[4]; total of cohort, 35 days", "value": 17},
      {"measurement": "% of BRDc positive animals", "setting": "[4]; total of cohort, 35 days", "value": 3.2, "unit": "%"},
      {"measurement": "average daily gain", "setting": "[5]; 35 days", "value": 2.0, "unit": "lbs/day"},
      {"measurement": "average 35-day weight gain", "setting": "[5]; baseline weight of 554 lbs", "value": 70, "unit": "lbs"},
      {"measurement": "average daily gain", "setting": "[5]; day 150", "value": 2.61, "unit": "lbs"},
      {"measurement": "average gain", "setting": "[5]; day 150", "value": 392, "unit": "lbs"},
      {"measurement": "additional weight gain relative to those treated with NORS", "setting": "[5]; over 35 days", "value": 5.5, "unit": "lbs"}
    ]},
    {"smiles": "[N]=O", "note": "[NO, Nitric Oxide]", "values": [
      {"measurement": "half-life in the body", "setting": "[6]", "value": "less than 6 s"}
    ]}
  ]
}
